Data on one compound can be found in PMC11069494, “Production of highly cytotoxic and low immunogenic L-asparaginase from Stenotrophomonas maltophilia EMCC2297” (AMB Express, 2024).

This test concerns T1, L-asparaginase (N-SMASP).
T1 construct: native enzyme purified from culture supernatant of chloramphenicol-selected colonies (ammonium sulfate, Sephadex G-100); single 17 kDa band on SDS-PAGE
The test is described as follows: Nessler ammonia release assay, Lineweaver-Burk. Type of test: biochemical, Stenotrophomonas maltophilia. Particulars: 0.05 M Tris-HCl pH 8.6, 37 °C.

SMILES strings stand for the structures.

For orientation: Km means the substrate concentration at which the rate is half of its maximum. As to `NC(=O)C[C@H](N)C(=O)O` [L-asparagine], the Km worked out at 41.6 mM.
